This is an account of results in paper PMC8517038 (Molecular psychiatry, 2021).

For data set [1], the target named is PCP binding site of the NMDAR (Rattus norvegicus, UniProt P35439). Description: Binding and enzyme target profile screen. The settings on record: 10 μM.
For a further data set, the target named is mu-opioid receptor (MOR) (Homo sapiens, UniProt P35372). Description: Binding and enzyme target profile screen. To be noted: 10 μM.
Data set [2] concerns the target T1, KOR (Homo sapiens, UniProt P41145). Description: Binding and enzyme target profile screen.
For another data set, the target named is Sigma-1 (Rattus norvegicus, UniProt Q9R0C9). Description: Competitive radioligand binding, [3H].
Data set [3] has as its target T2, MOR (Homo sapiens, UniProt P35372). Description: cAMP accumulation BRET. It is filed as cell-based.
Data set [4] deals with T1, KOR. Description: cAMP accumulation BRET. It is filed as cell-based.
In data set [5] the target is T2, MOR. The data set can be described thus: β-arrestin recruitment BRET in transfected HEK-293 cells. Type of data set: cell-based.
The target in data set [6] is T1, KOR. Described as above. It is filed as cell-based.
The test system of data set [7] is dopamine tone. Description: [18F]-Fallypride PET. It is filed as in vivo, rat. To be noted: 10 mg/kg IV infusion for 40 min.
The test system of a further data set is locomotor activity. The data set can be described thus: Locomotor activity in mice. Type of data set: in vivo. The settings on record: for acute locomotor activity: male mice, 5, 10 and 20 mg/kg IP every 30 min.
The next data set concerns locomotor sensitization. The data set can be described thus: Locomotor. Type of data set: in vivo. To be noted: male mice; for locomotor (psychomotor) sensitization over days: 20 mg/kg IP for 3 days.
In data set [8] the test system is conditioned place preference. The data set can be described thus: Conditioned place preference in mice. To be noted: male mice, 10 mg/kg IP, 6 days pairing. Type of data set: in vivo.
In a further data set the test system is drug self-administration. Description: Intravenous self-administration in rats. To be noted: for dose response curve of self-administration: 0.125, 0.25, 0.5, 1.0 mg/kg/infusion, FR1; for extinction of drug self-administration: after retraining on FR1; for self-administration during training: male and female rats, 0.5 mg/kg/infusion, FR1 20-s timeout, 16 sessions. It is filed as in vivo.

Data set [9] relates to conditioned place preference. The settings on record: 40 mg/kg IP, cited from earlier work.
Data set [10] concerns morphine CPP and opioid withdrawal. To be noted: mice; cited from earlier work.
In data set [11] the test system is NMDARs over opioid receptors. To be noted: canonical high affinity NMDAR antagonist; no reference given; cited from earlier work.
Data set [12] has as its system methamphetamine-induced locomotion. The settings on record: 10 mg/kg/day, twice weekly for 8 weeks; cited from earlier work.
Data set [13] has as its system dopamine tone. The settings on record: awake monkeys; cited from earlier work.

Like-named read-outs stand apart in the source and are kept apart here. Some results are limits rather than exact numbers.

T1 sequence (P41145 whole entry): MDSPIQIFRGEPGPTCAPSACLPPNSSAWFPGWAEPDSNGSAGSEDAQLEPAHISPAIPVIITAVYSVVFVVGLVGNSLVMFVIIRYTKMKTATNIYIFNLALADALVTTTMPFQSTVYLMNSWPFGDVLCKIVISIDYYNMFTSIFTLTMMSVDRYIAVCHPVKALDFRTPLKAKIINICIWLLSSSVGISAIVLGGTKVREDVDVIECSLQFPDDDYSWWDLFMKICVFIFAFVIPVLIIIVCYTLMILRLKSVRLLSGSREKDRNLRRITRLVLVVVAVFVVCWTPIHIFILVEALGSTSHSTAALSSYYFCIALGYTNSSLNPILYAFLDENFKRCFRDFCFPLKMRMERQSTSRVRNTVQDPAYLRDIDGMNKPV
T2 sequence (P35372 whole entry): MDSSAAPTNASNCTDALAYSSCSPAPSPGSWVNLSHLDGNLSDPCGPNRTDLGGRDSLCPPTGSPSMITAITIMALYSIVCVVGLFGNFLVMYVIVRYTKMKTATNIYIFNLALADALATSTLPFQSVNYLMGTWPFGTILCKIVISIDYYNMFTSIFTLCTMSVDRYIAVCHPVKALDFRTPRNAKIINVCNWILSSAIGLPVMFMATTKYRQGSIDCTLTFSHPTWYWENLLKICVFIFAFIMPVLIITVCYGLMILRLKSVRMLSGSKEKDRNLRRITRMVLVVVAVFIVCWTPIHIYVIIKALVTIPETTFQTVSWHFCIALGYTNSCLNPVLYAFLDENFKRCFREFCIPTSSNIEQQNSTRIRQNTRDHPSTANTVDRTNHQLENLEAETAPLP
Sequence of mu-opioid receptor (MOR) (P35372 whole entry): as above
Sequence of Sigma-1 (Q9R0C9 whole entry): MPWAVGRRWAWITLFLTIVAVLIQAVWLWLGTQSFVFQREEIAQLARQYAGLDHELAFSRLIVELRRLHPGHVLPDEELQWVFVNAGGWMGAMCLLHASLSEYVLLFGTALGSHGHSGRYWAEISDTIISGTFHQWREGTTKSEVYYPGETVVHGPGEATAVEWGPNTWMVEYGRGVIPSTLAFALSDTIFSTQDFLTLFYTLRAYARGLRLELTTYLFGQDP

One may read the Ki as a dissociation constant, usually derived from enzyme kinetics or from competition with a known ligand. For orientation: EC50 means the concentration at which the effect is half-maximal. Turning to `CN[C@@]1(c2ccccc2Cl)CCCCC1=O` [(R)-ketamine], the “hit (>50% inhibition) at PCP binding site of the NMDAR” value in data set [1] was “positive hit”. Moreover, on mu-opioid receptor (MOR), the “hit (>50% inhibition) at MOR” value is “not for (R)-ketamine”. Further, the “inhibition of KOR binding” value at KOR [2] (10 μM) is reported as ~ 13%. Besides, the Ki on Sigma-1 (read-out: Ki sigma-1, rat whole brain, [3H](+)pentazocine) worked out at 27 ± 3 µM. The “mode of action at MOR, cAMP assay” value on MOR [3] is on record as “weaker partial agonist”. Moreover, on MOR [3] (% morphine maximum response), the “Emax MOR, cAMP assay” value was 39 ± 3%. For the same compound, on MOR [3] (read-out: EC50 MOR, cAMP assay, HEK-293 transfected with MOR), the EC50 turned out to be 34 ± 14 µM. Besides, the “mode of action at KOR, cAMP assay” value on KOR [4] was “weaker partial agonist”. Further, the “Emax KOR, cAMP assay” value on KOR [4] (% morphine maximum response) is less than 50%. On KOR [4] (read-out: EC50 KOR, cAMP assay, HEK-293 transfected with KOR), the EC50 is more than 100 µM. Also, the “activation of the β-arrestin pathway, MOR” value on MOR [5] is “Neither (S)- nor (R)-ketamine activated”. In addition, the “activation of the β-arrestin pathway, KOR” value at KOR [6] is “Neither (S)- nor (R)-ketamine activated”. In addition, in the data set with dopamine tone [7], the “global extracellular dopamine levels in the dorsal striatum ([18F]fallypride)” value is recorded as “Neither (S)- nor (R)-ketamine significantly changed”. For the same compound, in the data set on locomotor activity, the acute locomotor activity result was “increasing it only at the 20 mg/kg dose”. For the same compound, in the data set with locomotor sensitization, the “locomotor activity after 20 mg/kg IP injection” value is listed as “increased locomotor activity” and the “locomotor (psychomotor) sensitization over days” value is given as “but not (R)-ketamine induced psychomotor sensitization”. The “cross-sensitization to (S)-ketamine” value in the data set with locomotor sensitization (repeated 20 mg/kg IP) is recorded as “did not cross-sensitize to (S)-ketamine”. Besides, the “conditioned place preference for drug-paired chamber” value in data set [8] is given as “not for the (R)-ketamine-paired chamber”. Moreover, in the data set with drug self-administration, the “dose response curve of self-administration” value is listed as “did not show this pattern of responding”; the “extinction of drug self-administration” value was “rapid extinction of drug seeking”; the self-administration during training result was “weaker and less reliable”. In addition, in data set [9] (ref 68), the CPP in mice result is recorded as “did not produce CPP”. Moreover, the CPP in mice result in data set [9] (ref 71) is “produced CPP in mice”. Moreover, the “morphine CPP and naloxone-precipitated opioid withdrawal” value in data set [10] was “decreases morphine CPP and naloxone-precipitated opioid withdrawal”.
In the case of `C[C@]12N[C@H](Cc3ccccc31)c1ccccc12` [MK-801], in data set [11], the “selectivity for NMDAR over opioid receptors” value is given as ~ 1000 fold.
For the compound `O=C1CC[C@@]2(O)[C@H]3Cc4ccc(O)c5c4[C@@]2(CCN3CC2CC2)[C@H]1O5` [naltrexone], the “effect on (S)-ketamine-induced locomotor activity” value with locomotor activity (naltrexone 10 mg/kg IP pretreatment, male mice) is reported as “partially blocked”.
As a reminder, the inhibition is the drop in the measured response relative to a control, in per cent. The Emax is the greatest response seen or fitted, relative to the assay's reference. On to `CN[C@]1(c2ccccc2Cl)CCCCC1=O` [(S)-ketamine], for which, in [1], the “hit (>50% inhibition) at PCP binding site of the NMDAR” value is recorded as “positive hit”. Further, on mu-opioid receptor (MOR), the “hit (>50% inhibition) at MOR” value is reported as “identified as a hit for (S)-ketamine”. Besides, at KOR [2] (read-out: inhibition of KOR binding), the inhibition at 10 µM is approximately 35%. The affinity at Sigma-1 corresponds to a Ki of 131 ± 15 µM. On MOR [3], it took 9 ± 2 µM to reach a half-maximal effect (EC50) and the “mode of action at MOR, cAMP assay” value is given as “partial agonist”. The Emax on MOR [3] (HEK293, read-out: Emax MOR, cAMP assay) turned out to be 48 ± 3%. Also, on KOR [4], the EC50 stood at 16 ± 4 µM and the “mode of action at KOR, cAMP assay” value was “full agonist”. Also, the Emax at KOR [4] (HEK293, read-out: Emax KOR, cAMP assay) amounted to 84 ± 5%. Besides, the “activation of the β-arrestin pathway, MOR” value on MOR [5] was “Neither (S)- nor (R)-ketamine activated”. The “activation of the β-arrestin pathway, KOR” value at KOR [6] was “Neither (S)- nor (R)-ketamine activated”. The “global extracellular dopamine levels in the dorsal striatum ([18F]fallypride)” value in the data set on dopamine tone [7] was “Neither (S)- nor (R)-ketamine significantly changed”. Also, the acute locomotor activity entry in the data set on locomotor activity was “more potent than (R)-ketamine in increasing locomotor activity”. In addition, in the data set on locomotor sensitization, the “locomotor activity after 20 mg/kg IP injection” value was “increased locomotor activity” and the “locomotor (psychomotor) sensitization over days” value was “showed locomotor sensitization over days”. In addition, in data set [8], the “conditioned place preference for drug-paired chamber” value is reported as “significant preference for the (S)-ketamine-paired chamber”. In the data set with drug self-administration, the “dose response curve of self-administration” value is given as “characteristic inverted U-shaped dose response curve”, the “extinction of drug self-administration” value is “rapid extinction of drug seeking” and the self-administration during training entry is “self-administered (S)-ketamine with a significant escalation of drug intake”. In addition, the average self-administered intake with drug self-administration (dose response test) is recorded as ~ 15 mg/kg/h. The “methamphetamine-induced locomotion in mice” value in [12] is on record as “led to increased methamphetamine-induced locomotion”. In addition, the “[11C]raclopride binding (dopamine tone)” value with dopamine tone [13] is “decreases in [^11C]raclopride binding”.
